This test has as its target 5HT6 human recombinant receptor (Homo sapiens, UniProt P50406). The experiment in a line: Binding with serotonin receptor 5HT6 ([3H]-LSD radioligand displacement, HEK-293 cell membranes). As to conditions: for inhibition at 0.01 µM: read-out: Binding % Inhibition 10 nM; for inhibition at 0.1 µM: read-out: Binding % Inhibition 100 nM.

Sequence of 5HT6 human recombinant receptor (P50406 whole entry): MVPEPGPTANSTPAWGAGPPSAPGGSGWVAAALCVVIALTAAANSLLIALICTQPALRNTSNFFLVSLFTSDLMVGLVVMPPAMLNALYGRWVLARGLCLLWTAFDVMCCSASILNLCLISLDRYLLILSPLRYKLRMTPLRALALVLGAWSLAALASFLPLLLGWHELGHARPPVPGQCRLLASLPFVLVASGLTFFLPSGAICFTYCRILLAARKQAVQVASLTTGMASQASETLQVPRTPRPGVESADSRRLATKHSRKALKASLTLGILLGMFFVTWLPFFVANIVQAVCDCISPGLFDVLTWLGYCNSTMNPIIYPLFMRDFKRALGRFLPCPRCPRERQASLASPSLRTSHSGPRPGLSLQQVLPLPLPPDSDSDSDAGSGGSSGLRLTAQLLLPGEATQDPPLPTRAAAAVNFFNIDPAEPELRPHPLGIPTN

Regarding `COc1cccc2c(S(=O)(=O)Nc3ccc4[nH]cc(CCN(C)C)c4c3)cccc12` [Example 14, N-(3-(2-(dimethylamino)ethyl)-1H-indol-5-yl)-5-methoxynanhthalene-1-sulfonamide], the Ki (usually a dissociation constant, usually derived from enzyme kinetics or from competition with a known ligand) is 18.6 nM; the inhibition (in general, the relative decrease from the control value, in per cent) at 0.01 µM was 59.6%; the inhibition at 0.1 µM came to 88.1%.

In the case of `CN(C)CCc1c[nH]c2ccc(N(C)S(=O)(=O)c3cccc4c(Cl)cccc34)cc12` [Example 12, 5-chloro-N-(3-(2-(dimethylamino)ethyl)-1H-indol-5-yl)-N-methylnaphthalene-1-sulfonamide], the Ki stood at 48.7 ± 6.9 nM, the inhibition at 0.01 µM came to 51.6% and the inhibition at 0.1 µM stood at 85.4%.

As to `CN(C)CCc1c[nH]c2ccc(NS(=O)(=O)c3cccc4cccc(Cl)c34)cc12` [Example 6, 8-chloro-N-(3-(2-(dimethylamino)ethyl)-1H-indol-5-yl)naphthalene-1-sulfonamide], the Ki turned out to be 2.1 nM, the inhibition at 0.01 µM stood at 68.4% and the inhibition at 0.1 µM is 88.4%.

With `CN(C)CCc1c[nH]c2ccc(NS(=O)(=O)c3ccc4ccc(O)cc4c3)cc12` [Example 17, N-(3-(2-(dimethylamino)ethyl)-1 H-indol-5-yl)-7-hydroxynaphthalene-2-sulfonamide], the Ki came out at 6.9 ± 0.2 nM, the inhibition at 0.01 µM was 69.9% and the inhibition at 0.1 µM came out at 91.5%.

Turning to `Cn1cc(CCN2CCCC2)c2cc(NS(=O)(=O)c3cccc4ccccc34)ccc21` [Example 9, N-(1-methyl-3-(2-(pyrrolidin-1-yl)ethyl)-1H-indol-5-yl)naphthalene-1-sulfonamide], the Ki is 42.5 ± 13.9 nM, the inhibition at 0.01 µM amounted to 58.1% and the inhibition at 0.1 µM worked out at 86.8%.

For `CN(C)CCc1c[nH]c2ccc(NS(=O)(=O)c3cccc4cccc(O)c34)cc12` [Example 19, N-(3-(2-(dimethylamino)ethyl)-1H-indol-5-yl)-8-hydroxynaphthalene-1-sulfonamide], the inhibitory constant (Ki) came to 24.6 ± 2.1 nM, the inhibition at 0.01 µM is 53.8% and the inhibition at 0.1 µM is 85.9%.

Consider `COc1ccc2ccc(S(=O)(=O)Nc3ccc4[nH]cc(CCN(C)C)c4c3)cc2c1` [Example 16, N-(3-(2-(dimethylamino)ethyl)-1H-indol-5-yl)-7-methoxynaphthalene-2-sulfonamide], for which the inhibitory constant (Ki) was 5 ± 1.3 nM, the inhibition at 0.01 µM was found to be 70% and the inhibition at 0.1 µM stood at 89.3%.

In the case of `CN(C)CCc1cn(C)c2ccc(NS(=O)(=O)c3ccc4c(Cl)cccc4c3)cc12` [Example 8, 5-chloro-N-(3-(2-(dimethylamino)ethyl)-1-methyl-1H-indol-5-yl)naphthalene-2-sulfonamide], the Ki stood at 13.4 ± 0.9 nM, the inhibition at 0.01 µM came out at 64.5% and the inhibition at 0.1 µM turned out to be 93.4%.

`CN(C)CCc1c[nH]c2ccc(NS(=O)(=O)c3ccc4ccc(Cl)cc4c3)cc12` [Example 4, 7-chloro-N-(3-(2-(dimethylamino)ethyl)-1H-indol-5-yl)naphthalene-2-sulfonamide]: the inhibition constant Ki stood at 3.9 ± 0.4 nM, the inhibition at 0.01 µM stood at 81.2% and the inhibition at 0.1 µM amounted to 89.3%.

Consider `CN(C)CCc1c[nH]c2ccc(NS(=O)(=O)c3ccc4cc(N(C)C)ccc4c3)cc12` [Example 5, 6-(dimethylamino)-N-(3-(2-(dimethylamino)ethyl)-1H-indol-5-yl)naphthalene-2-sulfonamide], for which the Ki worked out at 11.9 ± 3.3 nM, the inhibition at 0.01 µM was 69.8% and the inhibition at 0.1 µM was found to be 88.5%.

`CN(C)CCc1c[nH]c2ccc(NS(=O)(=O)c3ccc(F)c4ccccc34)cc12` [Example 7, N-(3-(2-(dimethylamino)ethyl)-1H-indol-5-yl)-4-fluoronaphthalene-1-sulfonamide]: the Ki was found to be 5.2 nM, the inhibition at 0.01 µM was 81.5% and the inhibition at 0.1 µM was 95.4%.

As to `CN(C)CCc1c[nH]c2ccc(N(C)S(=O)(=O)c3ccc4c(Cl)cccc4c3)cc12` [Example 13, 5-chloro-N-(3-(2-(dimethylamino)ethyl)-1H-indol-5-yl)-N-methylnaphthalene-2-sulfonamide], the inhibition constant Ki was found to be 18.1 ± 2.6 nM, the inhibition at 0.01 µM was 55.5% and the inhibition at 0.1 µM came to 87.6%.

As for `Cc1ccc(S(=O)(=O)Nc2ccc3[nH]cc(CCN(C)C)c3c2)c2ccccc12` [Example 3, N-(3-(2-(dimethylamino)ethyl)-1H-indol-5-yl)-4-methylnanhthalene-1-sulfonamide], the Ki amounted to 9.8 nM, the inhibition at 0.01 µM came to 80.3% and the inhibition at 0.1 µM is 88.5%.

`COc1cccc2cccc(S(=O)(=O)Nc3ccc4[nH]cc(CCN(C)C)c4c3)c12` [Example 18, N-(3-(2-(dimethylamino)ethyl)-1H-indol-5-yl)-8-methoxynaphthalene-1-sulfonamide]: the Ki was determined as 8.3 nM, the inhibition at 0.01 µM is 69.2% and the inhibition at 0.1 µM was found to be 88.4%.

For `COc1ccc(S(=O)(=O)Nc2ccc3[nH]cc(CCN(C)C)c3c2)c2ccccc12` [Example 20, N-(3-(2-(dimethylamino)ethyl)-1H-indol-5-yl)-4-methoxynaphthalene-1-sulfonamide], the inhibitory constant (Ki) was found to be 8.5 ± 1.7 nM, the inhibition at 0.01 µM was 53.3% and the inhibition at 0.1 µM was 81.8%.

On to `CN(C)CCc1c[nH]c2ccc(NS(=O)(=O)c3ccc4cc(Cl)ccc4c3)cc12` [Example 1, 6-chloro-N-(3-(2-(dimethylamino)ethyl)-1H-indol-5-yl)naphthalene-2-sulfonamide], for which the inhibition at 0.01 µM came to 73.9% and the inhibition at 0.1 µM came out at 84.4%.

With `CN(C)CCc1c[nH]c2ccc(NS(=O)(=O)c3cccc4c(O)cccc34)cc12` [Example 15, N-(3-(2-(dimethylamino)ethyl)-1H-indol-5-yl)-5-hydroxynaphthalene-1-sulfonamide], the Ki turned out to be 0.5 nM, the inhibition at 0.01 µM worked out at 91.9% and the inhibition at 0.1 µM came out at 94.6%.

Turning to `CN(C)CCc1c[nH]c2ccc(N(C)S(=O)(=O)c3ccc4ccccc4c3)cc12` [Example 11, N-(3-(2-(dimethylamino)ethyl)-1H-indol-5-yl)-N-methylnaphthalene-2-sulfonamide], the Ki stood at 12.3 ± 3.7 nM, the inhibition at 0.01 µM stood at 73.1% and the inhibition at 0.1 µM was 93.1%.

On to `CN(C)CCc1c[nH]c2ccc(NS(=O)(=O)c3cccc4c(N(C)C)cccc34)cc12` [Example 2], for which the Ki was found to be 5.3 nM, the inhibition at 0.01 µM turned out to be 75.1% and the inhibition at 0.1 µM worked out at 86.3%.

As for `CN(C)CCc1c[nH]c2ccc(N(C)S(=O)(=O)c3cccc4ccccc34)cc12` [Example 10, N-(3-(2-(dimethylamino)ethyl)-1H-indol-5-yl)-N-methylnaphthalene-1-sulfonamide], the Ki stood at 9.7 ± 4.5 nM, the inhibition at 0.01 µM turned out to be 79.2% and the inhibition at 0.1 µM is 92.7%.

(Values after EP2036888A1, “Naphthyl-substituted sulfonamides” (Laboratorios del Dr. Esteve S.A., priority 2007, dated 2009).)
